System: normal human lung fibroblasts
Assay: Ribosomal profiling: translational efficiency in TGFβ-treated fibroblasts
Format: cell-based
In short: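 Cells lysed on ice after a cold PBS wash containing cycloheximide. Ribosome-protected fragments and total mRNA were prepared with the ARTseq kit and sequenced by RNA-Seq. Reads were trimmed, mapped to the human genome and counted uniquely over coding regions per gene, with low-count genes excluded before differential translational-efficiency analysis.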

With TGFβ the “Log2 TE RPS8” value (ENSG00000142937, 5 replicates) was 1.611, the “Log2 TE ACTA1” value (ENSG00000143632, 5 replicates) was −2.018 and the “change in translational profile of ACTA1 caused by TGFβ” value (ENSG00000143632, Control vs. TGFβ) was “A (A = <−2.5)”. For the same substance, the “Log2 TE PLEKHA6” value (ENSG00000143850, 5 replicates) was −2.069, the “change in translational profile of PLEKHA6 caused by TGFβ” value (ENSG00000143850, Control vs. TGFβ) was “B (B = <−1.5 to −2.5)” and the “Log2 TE RPS27A” value (ENSG00000143947, 5 replicates) was 1.275. For the same substance, the “Log2 TE AFF3” value (ENSG00000144218, 5 replicates) was 1.146, the “Log2 TE RPL32” value (ENSG00000144713, 5 replicates) was 1.916 and the “change in translational profile of RPL32 caused by TGFβ” value (ENSG00000144713, Control vs. TGFβ) was “E (E = <1.5 to 2.5)”. The “Log2 TE NICN1” value (ENSG00000145029, 5 replicates) was 1.403, the “Log2 TE RPS3A” value (ENSG00000145425, 5 replicates) was 1.661 and the “Log2 TE RPL37” value (ENSG00000145592, 5 replicates) was 1.808. For the same substance, the “change in translational profile of RPL37 caused by TGFβ” value (ENSG00000145592, Control vs. TGFβ) was “E (E = <1.5 to 2.5)”, the “Log2 TE BTF3” value (ENSG00000145741, 5 replicates) was 1.13 and the “change in translational profile of BTF3 caused by TGFβ” value (ENSG00000145741, Control vs. TGFβ) was “D (D = <1.0 to 1.5)”. For the same substance, the “Log2 TE HIGD2A” value (ENSG00000146066, 5 replicates) was 1.196, the “change in translational profile of HIGD2A caused by TGFβ” value (ENSG00000146066, Control vs. TGFβ) was “D (D = <1.0 to 1.5)” and the “Log2 TE SLC2A12” value (ENSG00000146411, 5 replicates) was −1.9708. The “change in translational profile of CREB5 caused by TGFβ” value (ENSG00000146592, Control vs. TGFβ) was “D (D = <1.0 to 1.5)”, the “Log2 TE ZNF92” value (ENSG00000146757, 5 replicates) was −1.238 and the “Log2 TE DENND2A” value (ENSG00000146966, 5 replicates) was −1.156. The “change in translational profile of DENND2A caused by TGFβ” value (ENSG00000146966, Control vs. TGFβ) was “C (C = <−1.0 to −1.5)”, the “Log2 TE RPL10” value (ENSG00000147403, 5 replicates) was 1.691 and the “change in translational profile of RPL10 caused by TGFβ” value (ENSG00000147403, Control vs. TGFβ) was “E (E = <1.5 to 2.5)”. The “Log2 TE EIF3H” value (ENSG00000147677, 5 replicates) was 1.329, the “change in translational profile of EIF3H caused by TGFβ” value (ENSG00000147677, Control vs. TGFβ) was “E (E = <1.5 to 2.5)” and the “Log2 TE SHC3” value (ENSG00000148082, 5 replicates) was −1.541. For the same substance, the “Log2 TE RPL7A” value (ENSG00000148303, 5 replicates) was 1.65, the “change in translational profile of RPL7A caused by TGFβ” value (ENSG00000148303, Control vs. TGFβ) was “E (E = <1.5 to 2.5)” and the “change in translational profile of EIF3M caused by TGFβ” value (ENSG00000149100, Control vs. TGFβ) was “D (D = <1.0 to 1.5)”. For the same substance, the “Log2 TE RPS3” value (ENSG00000149273, 5 replicates) was 1.518, the “change in translational profile of JPH2 caused by TGFβ” value (ENSG00000149596, Control vs. TGFβ) was “F (F = >2.5)” and the “change in translational profile of FAU caused by TGFβ” value (ENSG00000149806, Control vs. TGFβ) was “D (D = <1.0 to 1.5)”. The “Log2 TE CCDC102B” value (ENSG00000150636, 5 replicates) was −2.977, the “change in translational profile of CCDC102B caused by TGFβ” value (ENSG00000150636, Control vs. TGFβ) was “A (A = <−2.5)” and the “change in translational profile of FRMD4A caused by TGFβ” value (ENSG00000151474, Control vs. TGFβ) was “C (C = <−1.0 to −1.5)”. The “Log2 TE CCDC122” value (ENSG00000151773, 5 replicates) was −1.004, the “Log2 TE TMEM178” value (ENSG00000152154, 5 replicates) was 2.016 and the “Log2 TE HOMER1” value (ENSG00000152413, 5 replicates) was 1.003. For the same substance, the “change in translational profile of HOMER1 caused by TGFβ” value (ENSG00000152413, Control vs. TGFβ) was “D (D = <1.0 to 1.5)”, the “Log2 TE PLEKHH2” value (ENSG00000152527, 5 replicates) was −1.389 and the “change in translational profile of PLEKHH2 caused by TGFβ” value (ENSG00000152527, Control vs. TGFβ) was “B (B = <−1.5 to −2.5)”. The “Log2 TE UTRN” value (ENSG00000152818, 5 replicates) was −1.085, the “Log2 TE PTPRD” value (ENSG00000153707, 5 replicates) was −1.186 and the “change in translational profile of ANKH caused by TGFβ” value (ENSG00000154122, Control vs. TGFβ) was “D (D = <1.0 to 1.5)”. The “Log2 TE ABCA6” value (ENSG00000154262, 5 replicates) was −2.167, the “change in translational profile of ABCA6 caused by TGFβ” value (ENSG00000154262, Control vs. TGFβ) was “A (A = <−2.5)” and the “change in translational profile of OBSCN caused by TGFβ” value (ENSG00000154358, Control vs. TGFβ) was “B (B = <−1.5 to −2.5)”. For the same substance, the “Log2 TE NCAM2” value (ENSG00000154654, 5 replicates) was −1.135, the “change in translational profile of ADAMTS5 caused by TGFβ” value (ENSG00000154736, Control vs. TGFβ) was “C (C = <−1.0 to −1.5)” and the “change in translational profile of OXA1L caused by TGFβ” value (ENSG00000155463, Control vs. TGFβ) was “D (D = <1.0 to 1.5)”. For the same substance, the “Log2 TE C9orf85” value (ENSG00000155621, 5 replicates) was 1.112, the “change in translational profile of C9orf85 caused by TGFβ” value (ENSG00000155621, Control vs. TGFβ) was “D (D = <1.0 to 1.5)” and the “Log2 TE FMN2” value (ENSG00000155816, 5 replicates) was −1.246. For the same substance, the “Log2 TE CLIC2” value (ENSG00000155962, 5 replicates) was −2.392, the “Log2 TE UQCRB” value (ENSG00000156467, 5 replicates) was 1.048 and the “Log2 TE RPL30” value (ENSG00000156482, 5 replicates) was 1.622. For the same substance, the “change in translational profile of RPL30 caused by TGFβ” value (ENSG00000156482, Control vs. TGFβ) was “E (E = <1.5 to 2.5)”.
